From patent publication US4749710A, “Immunosuppressive agents” (priority 1985, dated 1988)
Like-named read-outs stand apart in the source and are kept apart here.

Tests used:
[1] = test system: human cytotoxic T-lymphocyte responses; assay: Inhibition of human CTL responses (mixed leukocyte-tumor cultures, HT-144 melanoma, ^51 Cr release); format: cell-based; conditions: for inhibition at 10 µM / inhibition at 1 µM / inhibition at 0.1 µM: Homo sapiens, T-lymphocyte, read-out: Inhibition of CTL activity (%); for inhibition at 10 µM / inhibition at 1 µM / inhibition at 0.1 µM / CTL activity (% specific ^51 Cr release): 0.1% ethanol
In short: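 Effector CTLs came from 6-day mixed leukocyte–tumor cultures of donor PBMC with irradiated stimulator cells plus 1×10^-5 M hydrocortisone. Effectors were added to adhered ^51Cr-labelled target cells overnight at 37 °C; specific ^51Cr release gave percent inhibition, mean±SEM of triplicates.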

[2] = test system: human mixed leukocyte-tumor cultures; assay: Total viable cells recovered from human mixed leukocyte-tumor cultures; format: cell-based; conditions: Table IV
Protocol: Human cytotoxic T-lymphocytes were generated in mixed leukocyte-tumor cultures by known methods. Specifically, blood from normal volunteer donors was drawn into heparinized syringes, diluted 1:1 with calcium-magnesium free Hanks' balanced salt solution (Ca-Mg free HBSS), and layered over lymphocyte separation medium (Litton Bionetics, Kensington, MD). After centrifugation at 500xg for 20-30 min at room temperature, peripheral blood mononuclear cells were harvested from the interface. The peripheral blood mononuclear leukocytes were centrifuged and resuspended in Ca-Mg free HBSS and were subsequently separated from platelets by centrifugation at 500xg through a solution of 20% sucrose and 1% human AB serum in Ca-Mg free HBSS. The cells were washed once and finally resuspended in tissue culture medium. […] Cells to be used as stimulator cells in mixed leukocyte-tumor cultures were irradiated with 10,000 rads of gamma irradiation to preclude proliferation in culture. Mixed leukocyte-tumor cell cultures were established in 16 mm tissue culture wells at a final volume of 1.5 ml per well containing 2×10^6 peripheral blood mononuclear leukocytes and 5×10^4 irradiation-inactivated stimulator cells. […]

[3] = test system: cytotoxic T-lymphocyte responses (P815 tumor cells); assay: Suppression of murine CTL responses in vivo (mice immunized with P815 cells); design: species or system C57BL/6 mice; conditions: for CTL activity (% specific ^51 Cr release): day 10; for CTL activity (% specific ^51 Cr release) / Inhibition of CTL activity (%): effector to target 10:1
Protocol: General description. The general test considerations are similar to those previously described for the in vitro murine experiments except that stimulator cells and experimental compound were administered to intact laboratory mice. The impact of compound on CTL responses generated in vivo was determined by comparing the resultant CTL activity from test mice to the CTL activity generated in mice which received vehicle only.
Female C57BL/6 mice were used between the ages of 9-12 weeks. Mice were given food and water ad libitum and were kept in a 12-hour light and 12-hour dark cycle.
A balanced salt solution (BSS) was prepared as described for tissue culture medium in the in vitro murine experiments but was additionally supplemented to 0.01 molar with HEPES buffer.
The compound, 22,23-dehydro-1α,25S,26-trihydroxycholecalciferol was dissolved in dimethylsulfoxide at final concentrations of 2 or 4 mg per ml. When working with vitamin D compounds, conditions of reduced lighting were employed.
In vivo regimens. Mice were apportioned at 4 per group and were inoculated intraperitoneally with 3×10^6 allogeneic P815 tumor cells and the resulting CTL activity was assessed 10 days later. Mice were treated by the intraperitoneal route with 25 microliters of test compound dissolved in dimethylsulfoxide or with dimethylsulfoxide only (vehicle control). In test 1, mice were given daily treatments of 50 micrograms of 22,23-dehydro-1α,25S,26-trihydroxycholecalciferol per day starting one day before immunization and continuing until the day before assay. In test 2, mice were treated with 100 micrograms of 22,23-dehydro-1α,25S,26-trihydroxycholecalciferol only twice: on the day before immunization and on the day of immunization.
Assay for CTL activity. Ten days after immunization of mice with P815 cells, single spleen cell suspensions were prepared by passage of spleens through a steel mesh into BSS and were subsequently washed twice with BSS. Further manipulations of spleen cells, labeling of P815 target cells with ^51 Cr, mechanics of the assay, and the calculation of results from the CTL assay are the same as described earlier for the in vitro murine CTL tests. Cytotoxic T lymphocyte activity was determined individually on spleen cells from each animal in each group and the results are expressed as the mean CTL activity (as percent specific ^51 Cr release) of each group±the standard deviation.
Statistical analysis. A student's t-test was to compare the vehicle-treatedgroup to the test group in each test and the resultant p values are shown.

[4] = Test 1, donor I, 1 × 10^-5 molar, effector to target 6:1
[5] = Test 1, donor I, 1 × 10^-6 molar, effector to target 6:1
[6] = Test 2, donor II, 1 × 10^-6 molar, effector to target 6:1
[7] = Test 2, donor II, 1 × 10^-7 molar, effector to target 6:1
[8] = Test 1, donor I, 1 × 10^-7 molar, effector to target 6:1
[9] = Test 2, donor III, 1 × 10^-6 molar, effector to target 32:1
[10] = Test 2, donor III, 1 × 10^-7 molar, effector to target 32:1
[11] = Test 3, donor IV, 1 × 10^-6 molar, effector to target 24:1
[12] = Test 3, donor IV, 1 × 10^-7 molar, effector to target 24:1

## C=C1/C(=C\C=C2/CCC[C@]3(C)[C@@H]([C@H](C)C[C@H](O)CC(C)(C)O)CC[C@@H]23)C[C@@H](O)C[C@@H]1O [1α,23S,25-(OH)3 --D3, 1α,23S,25-Trihydroxycholecalciferol]
[1]; [4]
  inhibition at 10 µM: 95%
  CTL activity (% specific ^51 Cr release): 2 ± 3 % specific ^51 Cr release
[1]; [5]
  inhibition at 1 µM: 72%
  CTL activity (% specific ^51 Cr release): 12 ± 3 % specific ^51 Cr release
[1]; [6]
  inhibition at 1 µM: 62%
  CTL activity (% specific ^51 Cr release): 14 ± 7 % specific ^51 Cr release
[1]; [7]
  inhibition at 0.1 µM: 73%
  CTL activity (% specific ^51 Cr release): 10 ± 2 % specific ^51 Cr release
[1]; Table IV
  suppression of generation of human cytotoxic T-lymphocytes (in words): suppressed the generation of human cytotoxic T-lymphocytes
[2]
  toxicity at concentrations suppressing human CTL generation (in words): non-toxic

## C=C1/C(=C\C=C2/CCC[C@]3(C)[C@@H]([C@H](C)C=CC[C@](C)(O)CO)CC[C@@H]23)C[C@@H](O)C[C@@H]1O [1α,25S,26-(OH)3 --Δ^22 -D3, 1α,25S,26-Trihydroxy-Δ^22-cholecalciferol]
[3]; both tests
  reduction in CTL activity in mice (in words): statistically significant reduction in CTL activity
[3]; test 1, 50 ug/dose intraperitoneal daily
  CTL activity (% specific ^51 Cr release): 13 ± 4 % specific ^51 Cr release
[3]; test 1, 50 ug/dose intraperitoneal daily, p < 0.05
  Inhibition of CTL activity (%): 58%
[3]; test 2, 100 ug/dose intraperitoneal, twice
  CTL activity (% specific ^51 Cr release): 14 ± 2 % specific ^51 Cr release
[3]; test 2, 100 ug/dose intraperitoneal, twice, p < 0.01
  Inhibition of CTL activity (%): 53%
[1]; [4]
  inhibition at 10 µM: 63%
  CTL activity (% specific ^51 Cr release): 16 ± 4 % specific ^51 Cr release
[1]; [5]
  inhibition at 1 µM: 70%
  CTL activity (% specific ^51 Cr release): 13 ± 8 % specific ^51 Cr release
[1]; [6]
  inhibition at 1 µM: 49%
  CTL activity (% specific ^51 Cr release): 19 ± 4 % specific ^51 Cr release
[1]; [7]
  inhibition at 0.1 µM: 97%
  CTL activity (% specific ^51 Cr release): 1 ± 4 % specific ^51 Cr release

## C=C1/C(=C\C=C2/CCC[C@]3(C)[C@@H]([C@H](C)/C=C/[C@H](C)[C@](C)(O)CO)CC[C@@H]23)C[C@@H](O)C[C@@H]1O [1α,25S,26-(OH)3 --D2, 1α,25S,26-Trihydroxyergocalciferol]
[1]; [5]
  inhibition at 1 µM: 54%
  CTL activity (% specific ^51 Cr release): 17 ± 4 % specific ^51 Cr release
[1]; [8]
  inhibition at 0.1 µM: 76%
  CTL activity (% specific ^51 Cr release): 9 ± 2 % specific ^51 Cr release
[1]; [9]
  inhibition at 1 µM: 100%
  CTL activity (% specific ^51 Cr release): -4 ± 2 % specific ^51 Cr release
[1]; [10]
  inhibition at 0.1 µM: 87%
  CTL activity (% specific ^51 Cr release): 7 ± 2 % specific ^51 Cr release
[1]; [11]
  inhibition at 1 µM: 82%
  CTL activity (% specific ^51 Cr release): 10 ± 2 % specific ^51 Cr release
[1]; [12]
  inhibition at 0.1 µM: 40%
  CTL activity (% specific ^51 Cr release): 34 ± 10 % specific ^51 Cr release
